Structure (SMILES)	melting point
O=S1(=O)CCC2(CC1)CO2	168 to 170 °C
O=C(O)c1ccc2ccc(Cl)cc2n1	179 to 181 °C
C=CCn1cnc(-c2ccccc2)c1N	72 to 74 °C
Nc1nnc(-c2ccncc2)o1	239 to 241 °C
O=C(O)c1ccc2nccnc2c1	233 to 235 °C
c1ccc(CNc2ccc(N3CCOCC3)cc2)nc1	132 to 134 °C
O=C(O)Cc1cc2ccccc2[nH]c1=O	278 to 280 °C
NC(=S)c1cc2ccccc2o1	146 to 148 °C
COc1ccc(-n2c(C)c(C)c3c(N)ncnc32)cc1	231 to 233 °C
O=C(O)C=Cc1cn(-c2ccccc2)nc1-c1cccs1	224 to 226 °C
CC(NC(=O)CCl)c1cccs1 (stereo not drawn)	92 to 94 °C
FC(F)(F)c1ccc(-n2cccn2)nc1	66 to 68 °C
Nc1ncc([N+](=O)[O-])cc1C(=O)O	239 to 241 °C
COc1ccc(C(=O)O)cc1S(N)(=O)=O	283 to 285 °C
COCCOc1cccc(CC(=O)O)c1	47 to 49 °C
Clc1ccc2cc(Br)ccc2n1	159 to 161 °C
O=C(O)c1cc(Cl)nc(Cl)n1	114 to 116 °C
OC(CNCc1ccccc1)C(F)(F)F (stereo not drawn)	58 to 60 °C
Clc1ccc(-c2cc(CBr)on2)cc1	116 to 118 °C
O=S(=O)(c1ccc2c(c1)CCCN2)N1CCCC1	130 to 132 °C
Cc1cc(N)ccc1NC(=O)c1cccc(S(C)(=O)=O)c1	149 to 151 °C
CCC(CC)(CN)NC(=O)OC(C)(C)C	49 to 51 °C
CCn1c(CCC(=O)O)nc2cc(S(N)(=O)=O)ccc21	263 to 265 °C
O=c1cc(CCl)nc2scnn12	183 to 187 °C

Structure (SMILES)	melting point
NC(=NO)c1ccc(CN2CCOCC2)cc1	158 to 160 °C
CC(O)c1cn(-c2ccccc2)nn1 (stereo not drawn)	75 to 77 °C
O=S(=O)(c1ccc2c(c1)CCN2)N1CCCCC1	171 to 173 °C
Nc1cc([N+](=O)[O-])ccn1	96 to 98 °C
Cc1c(N)cccc1S(N)(=O)=O	212 to 214 °C
Cc1ccc(S(=O)(=O)N(C)C)cc1N	172 to 174 °C
O=C1CCOc2c1cc(Br)cc2[N+](=O)[O-]	104 to 106 °C
Cc1cc(S(N)(=O)=O)cc(C(=O)O)c1C	261 to 263 °C
O=C(c1ccc(O)cc1)c1ccc(F)cc1	170 to 172 °C
O=C1CCCCN1c1ccc(Br)cc1F	96 to 98 °C
N#CCCn1c(S)nc2ccccc21	154 to 158 °C
Cc1ccccc1N(CC(=O)O)S(C)(=O)=O	109 to 111 °C
NS(=O)(=O)c1ccc([N+](=O)[O-])s1	139 to 141 °C
CC(=O)c1cccc(OC(C)C(=O)O)c1 (stereo not drawn)	93 to 95 °C
NS(=O)(=O)CCc1ccc([N+](=O)[O-])cc1	118 to 120 °C
NC(=S)c1cccc(C(=O)O)c1	240 to 242 °C
COc1ccc(C=CC(=O)O)cc1S(=O)(=O)N1CCCCC1	219 to 221 °C
Cc1ccccc1-n1c(C)cc(C=O)c1C	71 to 73 °C
Cc1cc(C(=O)CCl)c(C)n1-c1ccc(F)c(Cl)c1	115 to 117 °C
O=C(CO)N1CCNCC1	69 to 71 °C
NC(CC(=O)O)c1cccc(Cl)c1 (stereo not drawn)	227 to 229 °C
O=S(=O)(O)c1nc2ccccc2[nH]1	116 to 119 °C
Sc1nc(-c2ccccc2)c(-c2ccccc2)n1Cc1ccccc1	280 to 282 °C
O=C(O)CCC(=O)c1ccc2ccccc2c1	172 to 174 °C

Structure (SMILES)	melting point
NC(=O)c1cc(N)c(F)cc1F	169 to 171 °C
CCC(=O)C(N)=O	94 to 96 °C
O=C(CO)c1ccc(F)cc1F	95 to 97 °C
CC(CC(=O)c1cccc(F)c1)C(=O)O (stereo not drawn)	96 to 98 °C
CC(NC(=O)OC(C)(C)C)c1ccc(-c2cccc(C#N)c2)cc1 (stereo not drawn)	103 to 105 °C
O=C(CCl)N1CCCC1=O	33 to 35 °C
CCOC(=O)/C(C#N)=C\Nc1cc(F)cc(F)c1	174 to 176 °C
CC(C)Cn1nc(C(=O)O)c2ccccc2c1=O	171 to 173 °C
O=C(O)/C=C/S(=O)(=O)c1ccccc1	190 to 192 °C
Oc1ccc2nccnc2c1	225 to 227 °C
CC(=O)c1c(C)[nH]c(N=Nc2cccc(C(=O)O)c2)c1C	203 to 205 °C
Clc1ccc2oc(C3CCNCC3)nc2c1	86 to 88 °C
OCc1cccc2nccn12	154 to 156 °C
O=Cc1c(OCC(=O)O)ccc2ccccc12	174 to 176 °C
Cc1ccc(-c2cc(C(=O)O)c3c(C)noc3n2)c(C)c1	222 to 224 °C
OC(c1ccccc1)c1nc2cc(Cl)ccc2[nH]1 (stereo not drawn)	184 to 186 °C
O=[N+]([O-])c1ccc(S(=O)(=O)Cl)c(C(F)(F)F)c1	78 to 80 °C
Nc1cccc(OCc2ccc(F)cc2)c1	87 to 89 °C
O=C(O)c1cn(-c2ccccc2)nc1-c1cccs1	197 to 199 °C
Nc1nc(SCc2ccccc2)ns1	104 to 106 °C
Nc1cncnc1-c1ccccc1	115 to 117 °C
O=C(O)c1ccc(Br)c(O)c1	219 to 221 °C

Continued, values first:

melting point	Structure (SMILES)
67 to 69 °C	COC(=O)c1cc(I)cc(S(=O)(=O)Cl)c1
139 to 141 °C	Cc1cccc(Cl)c1NC(=O)CBr
181 to 183 °C	CSc1nc(C2CC2)cc(C(=O)O)c1C#N
236 to 238 °C	O=C(O)c1cc(-c2cccs2)nc2onc(C3CC3)c12
56 to 58 °C	CC(C)C(=O)NC1(C#N)CCCC1
90 to 92 °C	Cc1nc(C)c(NC(=O)OC(C)(C)C)s1
173 to 175 °C	Cc1cnc(Cl)cc1O
128 to 132 °C	CC(C)C(Nc1ccc(C(F)(F)F)cc1Cl)C(=O)O (stereo not drawn)
121 to 123 °C	COC(=O)c1ccc(Sc2ccc(Cl)cn2)c(N)c1
164 to 166 °C	CC(C)(C)Cc1noc2nc(C3CC3)cc(C(=O)O)c12
197 to 199 °C	Cc1nn(C)c(C)c1S(=O)(=O)NC(C)C(=O)O (stereo not drawn)
59 to 61 °C	CCc1cc2c(n1Cc1ccccc1)CCCC2=O
101 to 103 °C	OCc1cnc(N2CCOCC2)s1
69 to 71 °C	CCN(CC)S(=O)(=O)c1cccc(C(=O)NCC(=O)O)c1
159 to 161 °C	Cc1nc(N)cc(C2CC2)n1
132 to 134 °C	CN(C)S(=O)(=O)c1cn[nH]c1
164 to 166 °C	CCOc1cc(/C=C/C(=O)O)ccc1OC
73 to 75 °C	CC(C)(C)OC(=O)NC1CC1(F)F (stereo not drawn)
192 to 194 °C	CC1(c2ccc3c(c2)OCCCO3)NC(=O)NC1=O (stereo not drawn)
106 to 108 °C	CC(C)(C)OC(=O)NC1(C#N)CCCC1
84 to 86 °C	CNCc1ccc(N)nc1
252 to 254 °C	Cc1cc(C)c(-c2csc(N)n2)cc1C
71 to 73 °C	CNc1ccc(F)cc1[N+](=O)[O-]
76 to 78 °C	COc1nc(Cl)ncc1Br
94 to 96 °C	CC1CSC(=S)N1 (stereo not drawn)

melting point	Structure (SMILES)
59 to 61 °C	COC(=O)C(=O)CC(=O)c1ccccc1C
130 to 132 °C	N#CC1(NC(=O)c2ccccc2)CCCC1
52 to 54 °C	NCCCNC(=O)c1cccc(Br)c1
60 to 62 °C	CC(N)c1cccc(N2CCCS2(=O)=O)c1 (stereo not drawn)
84 to 86 °C	Cc1nc(-c2ccc(S(=O)(=O)Cl)cc2)co1
75 to 77 °C	Cc1cc(C)cc(-c2cc(N)[nH]n2)c1
211 to 213 °C	Cc1nn(C)c2nc(C(C)C)cc(C(=O)O)c12
356 to 358 °C	Cn1c(N)c(C(=O)CCl)c(=O)[nH]c1=O
261 to 263 °C	O=C(O)/C=C/c1cc(Cl)c2c(c1)OCCO2
182 to 184 °C	CN1C(=O)CCC(C(=O)O)C1c1cccc(Cl)c1 (stereo not drawn)
163 to 165 °C	Cc1c(C(=O)O)nnn1-c1ccc(Br)cc1Cl
274 to 276 °C	Cc1nc2c(cnn2C)c(=O)[nH]1
101 to 103 °C	c1coc(-c2cc[nH]n2)c1
226 to 228 °C	CSc1nc(NC(C)=O)n(C(C)=O)n1
227 to 229 °C	Cc1nnc2c(N)cc(Cl)nn12
71 to 73 °C	CSCc1nnc(S)o1
164 to 166 °C	CC(C)Cn1[nH]c(CC(=O)O)cc1=O
106 to 108 °C	COC(=O)c1cc(C)cc([N+](=O)[O-])c1N
111 to 113 °C	O=C(c1c(F)cccc1F)N1CCNCC1
197 to 199 °C	Cc1cc(Br)cc(Cl)c1OCC(=O)O
202 to 204 °C	CCCC(NC(=O)c1ccccc1)C(N)=S (stereo not drawn)
229 to 231 °C	O=C1Nc2cc(F)cc(F)c2C1=O
210 to 212 °C	COC(=O)c1ccc(C(=O)O)cn1
79 to 81 °C	CC(C)CC(=O)NCCc1ccc(S(=O)(=O)Cl)s1
79 to 81 °C	C=CC(=O)Nc1cccc(C(F)(F)F)c1

melting point	Structure (SMILES)
50 to 52 °C	ClCc1nc(-c2ccc3c(c2)OCO3)no1
228 to 230 °C	COC(=O)Cn1cnc2c(N)ncnc21
138 to 140 °C	O=C(O)CNC(=O)NCC1CCCC1
81 to 83 °C	O=c1onc(-c2ccccc2)n1CC1CO1 (stereo not drawn)
91 to 93 °C	CC(C)(C)OC(=O)N1CCC(N2CC(O)C2)CC1
209 to 211 °C	COc1ccc(C(=O)O)c(Cl)c1
219 to 221 °C	COc1ccccc1-c1ncc(C(=O)O)[nH]1
89 to 91 °C	Nc1cc(Cl)c(OCC(F)(F)F)c(Cl)c1
212 to 214 °C	O=C1CCc2cc(C(=O)CCl)ccc2N1
50 to 52 °C	CCNC(c1cccnc1)c1ccc2c(c1)CCO2 (stereo not drawn)
74 to 76 °C	CC1CN(S(=O)(=O)Cl)CC(C)O1 (stereo not drawn)
144 to 146 °C	CC1(c2ccc(Br)cc2)CC(=O)NC1=O (stereo not drawn)
202 to 204 °C	CC(C)c1nn(C2CCS(=O)(=O)C2)cc1C(=O)O (stereo not drawn)
81 to 83 °C	C=CC(=O)Nc1ccc(N(C)C(C)C)c(F)c1
124 to 126 °C	CC(=O)NCCc1ccc(C(=O)CCl)s1
110 to 112 °C	O=C(CCl)NC(=O)Nc1ccc2c(c1)OCCCO2
301 to 303 °C	CC1CCCC(C(N)C(=O)O)C1 (stereo not drawn)
128 to 130 °C	O=C(O)CCNC(=O)C1CCCC1
109 to 111 °C	CN(C1CCCCC1)S(=O)(=O)c1cccc(N)c1
179 to 181 °C	Cn1cc(C(=O)NN)cn1
113 to 115 °C	Nc1ccc(S(=O)(=O)C2CCCC2)cc1
152 to 154 °C	Nc1ccc(Cl)cc1C(=O)NCC1CC1
155 to 157 °C	Cc1ccc(C(=O)NC(C(=O)O)C(C)C)cc1 (stereo not drawn)
